Assay [1] has as its system BCMA-specific T-ChARM T cells co-cultured with K562/BCMA+ cells. Put plainly: Effect of exogenous soluble BCMA / BCMA-Fc on BCMA-specific T-ChARM T cell function. It counts as cell-based, human. As for the experimental part: (H) IFN-γ production by BCMA-specific T-ChARM T cells in the presence of exogenous soluble BCMA. sBCMA was added to co-cultures of T cells expressing a BCMA-specific T-ChARM and K562 cells transduced with a polynucleotide encoding full-length BCMA (K562/BCMA^+).
(I) Data from another dose-titration experiment showing the effect of sBCMA on IFN-γ production by BCMA-specific T-ChARM T cells recognizing K562 BCMA^+ cells, which included adding sBCMA to culture at another, higher concentration (5000 ng/mL).
(N) Flow cytometry data showing IFN-γ production (y-axis) and CD4 expression (x-axis) by T cells expressing either a C113ST-ChARM (“C113ST”) of this disclosure or a control anti-CD19 CAR (“[…]”), in co-culture with target-expressing K562 cells and administered the BCMA-Fc fusion protein (left panels: 0 ng/ml BCMA-Fc; right panels: 1000 ng/ml BCMA-Fc.
(O) Dose titration showing IFN-γ release by CAR T cells in response to target cell lines as indicated in the presence or absence of exogenous recombinant BCMA (BCMA-Fc fusion). FMC63 (anti-CD19) vs. K562 CD19^+ (control; downward-facing triangle); C113ST T-ChARM T cells vs. RPMI 8226 (upward-facing triangle), U266 (square), and K562 BCMA^+ cells (circle). Data is representative of 2 independent experiments. Bars represent mean+SEM. P-value=<0.05, as determined by one-way ANOVA with post-test. MFI=mean fluorescence intensity.
(P) IFN-γ production (normalized Mean Fluorescence Intensity, MFI) by the T cells shown in FIG. 2O in co-culture with indicated antigen-expressing cells and in the presence or absence of BCMA-Fc (x-axis).
(Q) Cytolytic activity of CD8^+ C113ST T-ChARM T cells against K562 BCMA^+ target cells and of FMC63 CAR-T cells against K562 CD19^+ target cells at varying concentrations of recombinant BCMA, analyzed by a 4 h CRA at E:T ratio of 10:1. Data is representative of 2 independent experiments. Bars represent mean+SEM. P-value=<0.05, as determined by one way ANOVA with post-test. MFI=mean fluorescence intensity.
The effect of sBCMA was examined as well by adding sBCMA to co-cultures of T cells expressing a BCMA-specific T-ChARM and K562 cells transduced with a polynucleotide encoding full-length BCMA (K562/BCMA^+).

For assay [2], the system named is C113ST T-ChARM T cells. The assay can be described thus: sBCMA binding to T-ChARM T cells (BCMA-Fc-APC staining after incubation with recombinant BCMA). Also on record: species or system human. The settings on record: increasing levels of recombinant BCMA. As for the experimental part:
(L) sBCMA binding to C113ST-ChARM T cells of this disclosure. T cells were incubated with the indicated levels of recombinant sBCMA (right side of diagram) and then stained with a BCMA-Fc fusion that was conjugated to APC.
To examine whether high levels of sBCMA might inhibit the activity of BCMA-specific T-ChARM T cells, patient bone marrow (BM) sera were examined for sBCMA levels. […] To test whether sBCMA would bind to the T-ChARM T cells, the T cells were incubated with increasing levels of recombinant BCMA and then stained using BCMA-Fc conjugated to APC.

This is an account of results in patent US11845803B2, “Combination therapies for treatment of BCMA-related cancers and autoimmune disorders” (Fred Hutchinson Cancer Center, priority 2017, dated 2023).

No end group written: not given here.

On to “BCMA-Fc: recombinant BCMA-Fc fusion protein (MLQMAGQCSQNEYFDSLLHACIPCQLRCSSNTPPLTCQRYCNASVTNSVKGTNA; not fully specified; cysteine pairing not given here; also: fused to dimerising Fc or GST (not given here))”, for which the “recognition (IFN-γ production and CD4 expression) by BCMA-targeting T-ChARM T cells” value in assay [1] (BCMA-Fc added to co-cultures) was “much-reduced recognition”. Also, the “recognition by control anti-CD19 CAR T cells” value in assay [1] (BCMA-Fc added, K562 cells expressing CD19) is “but not by control anti-CD19 CAR T cells”. In assay [1] (BCMA-Fc titration), the “dose dependence of effect on BCMA T-ChARM T cells” value is given as “dose-dependent”.
As for “sBCMA: exogenous soluble / recombinant BCMA not fused to Fc (MLQMAGQCSQNEYFDSLLHACIPCQLRCSSNTPPLTCQRYCNASVTNSVKGTNA)”, in assay [1] (exogenous sBCMA added to co-culture with K562/BCMA+), the “T-ChARM T cell effector function (IFN-γ release)” value is “dose-dependent inhibition”. For the same substance, the “IFN-γ production by T-ChARM T cells” value in assay [1] (recombinant BCMA not fused to Fc) is on record as “inhibited IFN-γ production in a dose-dependent fashion”. Also, in assay [1] (recombinant BCMA not fused to Fc, 4 h CRA, E:T 10:1), the “lysis of K562 BCMA+ cells by T-ChARM T cells” value is “did not inhibit lysis”. Moreover, in assay [2], the “BCMA-Fc-APC staining of T-ChARM T cells” value is “staining decreased”.
